Calls of active or inactive are those of the source. No cut-off for these calls is given here.
Assays:
[1] = Inhibition of human recombinant beta-tryptase pre-incubated for 3 hrs before N-tert-butoxycarbonyl-Gln-Ala-Arg-AMC substrate addition and measured every 30 secs for 15 mins by spectrometry
Homo sapiens = species on record: Homo sapiens; test: Inhibition of human recombinant beta-tryptase assessed as remaining enzyme activity at 10 uM pre-incubated for 3 hrs before N-tert-butoxycarbonyl-Gln-Ala-Arg-AMC substrate addition and measured after 8 hrs by spectrometry relative to control
HMC1 [2] = test: Inhibition of beta-tryptase in human HMC1 cells assessed as effect on A23187-induced degranulation; type: cell-based
Mus musculus = test: Inhibition of tryptase activity in tumors of mouse xenografted with human HMC1 cells at 10 mg/kg, iv dosed at time 0 and again 24 hrs later and measured at 24 to 48 hrs after second dose; type: functional, organism-based
HMC1 [3] = test: Inhibition of beta-tryptase in human HMC1 cells assessed as effect on tryptase activity by measured cell lysis; type: cell-based
[4] = Dissociation constant, pKa of the compound (B(OH)2) by UV metric assay; type: physicochemical
[5] = Stability in rat liver microsomes assessed as parent compound remaining at 15 uM in absence of NADPH incubated for 60 mins; type: ADME, Microsome; conditions: read-out: Stability
[6] = Apparent permeability from apical to basolateral side in MDCK cells; type: ADME, cell-based, Canis lupus familiaris; conditions: dog
[7] = Stability in human liver microsomes assessed as parent compound remaining at 15 uM in absence of NADPH incubated for 60 mins; type: ADME, Microsome; conditions: for remaining at 1 h, 15 µM: liver microsomes, read-out: Stability; for Stability: microsomes, 1 h, 15 µM
CYP2C9 = CYP2C9 (Homo sapiens, UniProt P11712); test: Inhibition of CYP2C9 (unknown origin) at 10 uM relative to control; type: ADME
CYP2C9, sequence (P11712 whole entry): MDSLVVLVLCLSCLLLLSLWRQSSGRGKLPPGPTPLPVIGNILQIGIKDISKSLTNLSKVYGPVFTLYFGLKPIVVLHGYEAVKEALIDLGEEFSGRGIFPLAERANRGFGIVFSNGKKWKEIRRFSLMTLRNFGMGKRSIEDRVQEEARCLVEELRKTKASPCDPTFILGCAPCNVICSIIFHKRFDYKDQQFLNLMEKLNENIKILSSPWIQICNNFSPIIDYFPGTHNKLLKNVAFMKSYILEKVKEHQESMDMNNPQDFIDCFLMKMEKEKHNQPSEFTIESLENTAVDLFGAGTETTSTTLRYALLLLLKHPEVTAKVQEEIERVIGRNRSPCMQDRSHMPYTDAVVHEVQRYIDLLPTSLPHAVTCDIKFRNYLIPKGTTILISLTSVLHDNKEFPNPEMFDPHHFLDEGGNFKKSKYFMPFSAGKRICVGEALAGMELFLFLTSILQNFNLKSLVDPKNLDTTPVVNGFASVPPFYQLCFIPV

[8] = Dissociation constant, pKa of the compound (NH3*) by pH metric assay; type: physicochemical
CYP2D6 = CYP2D6 (Homo sapiens, UniProt P10635); test: Inhibition of CYP2D6 (unknown origin) at 10 uM relative to control; type: ADME
CYP2D6, sequence (P10635 whole entry): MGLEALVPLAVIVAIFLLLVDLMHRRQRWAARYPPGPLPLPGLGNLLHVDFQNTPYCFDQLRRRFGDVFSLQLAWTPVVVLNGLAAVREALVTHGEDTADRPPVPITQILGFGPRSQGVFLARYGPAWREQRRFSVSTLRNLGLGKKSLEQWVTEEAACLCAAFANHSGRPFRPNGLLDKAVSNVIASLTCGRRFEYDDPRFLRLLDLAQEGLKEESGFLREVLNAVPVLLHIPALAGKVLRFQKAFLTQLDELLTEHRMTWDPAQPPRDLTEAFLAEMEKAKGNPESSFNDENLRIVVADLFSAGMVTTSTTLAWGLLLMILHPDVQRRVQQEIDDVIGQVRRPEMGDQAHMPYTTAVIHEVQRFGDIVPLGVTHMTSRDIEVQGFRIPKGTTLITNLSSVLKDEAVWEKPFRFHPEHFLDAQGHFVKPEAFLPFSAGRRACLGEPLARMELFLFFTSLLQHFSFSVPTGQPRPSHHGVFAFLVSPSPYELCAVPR

[9] = Stability in rat liver microsomes assessed as parent compound remaining at 15 uM in presence of NADPH incubated for 60 mins; type: ADME, Microsome; conditions: read-out: Stability
[10] = Dissociation constant, pKa of the compound (B(OH)2) by pH metric assay; type: physicochemical
[11] = Stability in human liver microsomes assessed as parent compound remaining at 15 uM in presence of NADPH incubated for 60 mins; type: ADME, Microsome; conditions: for remaining at 1 h, 15 µM: liver microsomes, read-out: Stability; for Stability: microsomes, 1 h, 15 µM
CYP3A4 = CYP3A4 (Homo sapiens, UniProt P08684); test: Inhibition of CYP3A4 (unknown origin) at 10 uM relative to control; type: ADME
CYP3A4, sequence (P08684 whole entry): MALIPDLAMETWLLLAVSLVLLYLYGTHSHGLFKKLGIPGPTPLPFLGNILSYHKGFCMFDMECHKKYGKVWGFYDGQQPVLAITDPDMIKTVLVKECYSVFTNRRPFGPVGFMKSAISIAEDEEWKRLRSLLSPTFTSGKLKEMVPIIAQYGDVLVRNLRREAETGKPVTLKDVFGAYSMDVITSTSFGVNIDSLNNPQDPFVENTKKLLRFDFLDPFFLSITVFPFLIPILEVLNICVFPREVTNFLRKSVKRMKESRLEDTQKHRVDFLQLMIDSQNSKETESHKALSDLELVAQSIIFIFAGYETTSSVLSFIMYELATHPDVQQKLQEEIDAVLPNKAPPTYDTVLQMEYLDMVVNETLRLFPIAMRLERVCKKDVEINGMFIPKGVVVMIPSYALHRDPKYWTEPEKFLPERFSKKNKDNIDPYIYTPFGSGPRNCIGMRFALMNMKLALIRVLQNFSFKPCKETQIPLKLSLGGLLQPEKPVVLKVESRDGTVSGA

[12] = Effective permeability from apical to basolateral side in PAMPA method; type: ADME; conditions: read-out: Peff
[13] = Effective permeability assessed as mass retention by PAMPA method; type: ADME
CYP2C19 = CYP2C19 (Homo sapiens, UniProt P33261); test: Inhibition of CYP2C19 (unknown origin) at 10 uM relative to control; type: ADME
CYP2C19, sequence (P33261 whole entry): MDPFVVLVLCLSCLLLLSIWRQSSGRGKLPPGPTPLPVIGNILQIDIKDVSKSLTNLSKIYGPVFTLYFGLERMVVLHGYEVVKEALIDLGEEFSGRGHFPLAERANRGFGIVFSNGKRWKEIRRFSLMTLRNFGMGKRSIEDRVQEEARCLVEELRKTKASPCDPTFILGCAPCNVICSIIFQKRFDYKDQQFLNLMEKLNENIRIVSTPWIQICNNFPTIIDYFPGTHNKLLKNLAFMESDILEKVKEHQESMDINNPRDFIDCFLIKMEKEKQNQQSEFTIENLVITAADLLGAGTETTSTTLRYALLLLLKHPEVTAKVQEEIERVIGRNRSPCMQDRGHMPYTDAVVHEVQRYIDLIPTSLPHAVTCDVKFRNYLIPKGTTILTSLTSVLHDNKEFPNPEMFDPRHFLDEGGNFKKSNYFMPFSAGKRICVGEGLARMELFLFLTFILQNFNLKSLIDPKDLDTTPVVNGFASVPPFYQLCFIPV

[14] = Stability in mouse liver microsomes assessed as parent compound remaining at 15 uM in absence of NADPH incubated for 60 mins; type: ADME, Microsome; conditions: read-out: Stability
CYP1A2 = target: T1, CYP1A2 (Homo sapiens, UniProt P05177); test: Inhibition of CYP1A2 (unknown origin) at 10 uM relative to control; type: ADME
T1 sequence (P05177 whole entry): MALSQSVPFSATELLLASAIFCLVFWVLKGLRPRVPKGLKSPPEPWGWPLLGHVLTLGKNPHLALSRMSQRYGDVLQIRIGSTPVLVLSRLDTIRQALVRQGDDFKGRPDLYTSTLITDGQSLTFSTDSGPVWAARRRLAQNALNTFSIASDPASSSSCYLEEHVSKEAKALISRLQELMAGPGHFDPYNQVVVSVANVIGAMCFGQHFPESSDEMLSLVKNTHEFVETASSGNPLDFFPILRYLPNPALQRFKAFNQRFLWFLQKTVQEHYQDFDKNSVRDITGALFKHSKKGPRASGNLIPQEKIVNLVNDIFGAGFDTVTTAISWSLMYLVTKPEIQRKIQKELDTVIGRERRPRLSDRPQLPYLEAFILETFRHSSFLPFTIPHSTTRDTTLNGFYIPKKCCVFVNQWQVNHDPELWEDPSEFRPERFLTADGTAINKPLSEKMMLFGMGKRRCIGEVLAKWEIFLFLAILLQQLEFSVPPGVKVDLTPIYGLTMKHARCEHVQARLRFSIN

[15] = Stability in mouse liver microsomes assessed as parent compound remaining at 15 uM in presence of NADPH incubated for 60 mins; type: ADME, Microsome; conditions: read-out: Stability
Tryptase beta-2 = target: T2, Tryptase beta-2 (Mus musculus, UniProt P21845); test: Inhibition of mouse MCP6 pre-incubated for 3 hrs before N-tert-butoxycarbonyl-Gln-Ala-Arg-AMC substrate addition and measured every 30 secs for 15 mins by spectrometry
T2 sequence (P21845 whole entry): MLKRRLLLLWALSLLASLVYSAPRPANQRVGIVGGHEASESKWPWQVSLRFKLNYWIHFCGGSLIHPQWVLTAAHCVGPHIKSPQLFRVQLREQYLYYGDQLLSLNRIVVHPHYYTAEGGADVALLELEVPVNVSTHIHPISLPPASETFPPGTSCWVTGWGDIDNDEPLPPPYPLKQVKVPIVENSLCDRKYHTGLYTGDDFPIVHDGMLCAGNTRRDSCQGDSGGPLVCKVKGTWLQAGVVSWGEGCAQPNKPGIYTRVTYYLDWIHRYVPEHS

[16] = Stability in human liver microsomes assessed as parent compound remaining at 15 uM in presence of UDPGA incubated for 60 mins; type: ADME, Microsome; conditions: for remaining at 1 h, 15 µM: liver microsomes, read-out: Stability; for Stability: microsomes, 1 h, 15 µM
[17] = Drug concentration in tumor of mouse xenografted with human HMC1 cells at 10 mg/kg, iv dosed at time 0 and again 24 hrs later and measured at 0 hrs after second dose by LC-MS/MS analysis; type: ADME, organism-based, Neoplasm; conditions: read-out: Drug uptake
[18] = Plasma concentration in mouse xenografted with human HMC1 cells at 10 mg/kg, iv dosed at time 0 and again 24 hrs later and measured at 8 hrs after second dose by LC-MS/MS analysis; type: ADME, organism-based
[19] = Drug concentration in tumor of mouse xenografted with human HMC1 cells at 10 mg/kg, iv dosed at time 0 and again 24 hrs later and measured at 8 hrs after second dose by LC-MS/MS analysis; type: ADME, organism-based, Neoplasm; conditions: read-out: Drug uptake
[20] = Plasma concentration in mouse xenografted with human HMC1 cells at 10 mg/kg, iv dosed at time 0 and again 24 hrs later and measured at 2 hrs after second dose by LC-MS/MS analysis; type: ADME, organism-based
[21] = Drug concentration in tumor of mouse xenografted with human HMC1 cells at 10 mg/kg, iv dosed at time 0 and again 24 hrs later and measured at 24 hrs after second dose by LC-MS/MS analysis; type: ADME, organism-based, Neoplasm; conditions: read-out: Drug uptake
[22] = Drug concentration in tumor of mouse xenografted with human HMC1 cells at 10 mg/kg, iv dosed at time 0 and again 24 hrs later and measured at 2 hrs after second dose by LC-MS/MS analysis; type: ADME, organism-based, Neoplasm; conditions: read-out: Drug uptake
[23] = Plasma concentration in mouse xenografted with human HMC1 cells at 10 mg/kg, iv dosed at time 0 and again 24 hrs later and measured at 24 hrs after second dose by LC-MS/MS analysis; type: ADME, organism-based
[24] = Half life in C57BL/6 mouse at 5 mg/kg, iv measured over 0.25 to 24 hrs by LC-MS/MS analysis; type: ADME, organism-based; conditions: in vivo
[25] = Clearance in C57BL/6 mouse at 5 mg/kg, iv measured over 0.25 to 24 hrs by LC-MS/MS analysis; type: ADME, organism-based; conditions: in vivo
[26] = Tmax in C57BL/6 mouse at 50 mg/kg, po measured over 0.25 to 24 hrs by LC-MS/MS analysis; type: ADME, organism-based; conditions: in vivo
[27] = Time for Clast in C57BL/6 mouse at 50 mg/kg, po measured over 0.25 to 24 hrs by LC-MS/MS analysis; type: ADME, organism-based; conditions: in vivo
[28] = Time for Clast in C57BL/6 mouse at 5 mg/kg, iv measured over 0.25 to 24 hrs by LC-MS/MS analysis; type: ADME, organism-based; conditions: in vivo
[29] = Solubility of the compound; type: physicochemical
[30] = Lipophilicity, logD of the compound at pH 7.4; type: physicochemical; conditions: buffer

SMILES	IC50 [1] [nM]	remaining at 1 h, 15 µM [7] [%]	remaining at 1 h, 15 µM [11] [%]	IC50 (Tryptase beta-2) [nM]	remaining at 1 h, 15 µM [16] [%]	further results
Cc1cc(C(=O)N2CCC3(CC2)COc2ccc(CN)cc23)cc(-c2cccc(B(O)O)c2)c1C	1360	–	–	–	–	–
NCc1ccc2c(c1)C1(CCN(C(=O)c3cc(O)c(O)c(Cl)c3)CC1)CO2 [listing 1 of 2 here]	–	–	–	–	–	inhibition (Homo sapiens): inactive; inhibition (HMC1 [2]): Active; inhibition (Mus musculus): Active; inhibition (HMC1 [3]): inactive
NCc1cccc(C2CCN(C(=O)c3cccc4ccc(B(O)O)cc34)CC2)c1	15800	97	100	–	–	pKa [4]: 8.51; remaining at 1 h, 15 µM [5]: 100%; Papp A→B [6]: 0.28 ×10⁻⁶ cm/s; inhibition at 10 µM (CYP2C9): 97%; pKa [8]: 9.53; inhibition at 10 µM (CYP2D6): 79%; remaining at 1 h, 15 µM [9]: 100%; pKa [10]: 8.18; inhibition at 10 µM (CYP3A4): 27%; Papp [12]: 2.06 ×10⁻⁶ cm/s; Activity [13]: 96.2%; inhibition at 10 µM (CYP2C19): 80%; remaining at 1 h, 15 µM [14]: 100%; inhibition at 10 µM (CYP1A2): 45%; remaining at 1 h, 15 µM [15]: 99%
NCc1cccc(C2CCN(C(=O)c3ccc(CO)c(O)c3)CC2)c1	65.8	63	68	1550	81	–
CSc1sc(C(=O)N2CCC3(CC2)COc2ccc(CN)cc23)cc1-c1cccc2c1COB2O	18	–	–	–	–	Stability [7]: Stable; Stability [11]: Stable; Stability [16]: Stable
NCc1ccc2c(c1)C1(CCN(C(=O)c3cc(O)c(O)c(Cl)c3)CC1)CO2.O=C(O)C(F)(F)F	–	–	–	–	–	concentration at 0 h [17]: 17.6 nM; concentration at 8 h [18]: 1.28 nM; concentration at 8 h [19]: 58.6 nM; concentration at 2 h [20]: 311 nM; concentration at 24 h [21]: 8.64 nM; concentration at 2 h [22]: 314 nM; concentration at 24 h [23]: 0.02 nM
CONC(=O)c1ccc(C(=O)N2CCC(c3cccc(CN)c3)CC2)cc1O	120	–	–	–	–	Stability [7]: Stable; Stability [11]: Stable; Stability [16]: Stable
NCc1cccc(C2CCN(C(=O)c3cc(O)c(O)c(Cl)c3)CC2)c1	339	28	29	17500	18	–
NCc1cccc(C2CCN(C(=O)c3cccc(-c4cccc(B(O)O)c4)c3)CC2)c1	843	1	2	1420	1	half-life [24]: 216 min; clearance [25]: 52.5 mL/min/kg
NCc1cccc(C2CCN(C(=O)/C=C/c3ccc4c(c3)OB(c3ccc5cccc(C(=O)N6CCC(c7cccc(CN)c7)CC6)c5c3)O4)CC2)c1	411	–	–	–	–	–
Cc1cc(C(=O)N2CCC(c3cccc(CN)c3)CC2)cc(-c2cccc(B(O)O)c2)c1C	1250	–	–	–	–	–
CSc1sc(C(=O)N2CCC(c3cccc(CN)c3)CC2)cc1-c1cccc2c1COB2O	14.2	–	–	–	–	–
NCc1cccc(C2CCN(C(=O)c3ccc(O)c(O)c3)CC2)c1	452	43	52	2310	53	half-life [24]: 45.6 min; clearance [25]: 519 mL/min/kg
NCc1ccc2c(c1)C1(CCN(C(=O)c3ccc(Cl)c(-c4cccc(B(O)O)c4)c3)CC1)CO2	1100	–	–	599	–	–
NCc1ccc2c(c1)C1(CCN(C(=O)c3ccc(CO)c(O)c3)CC1)CO2	656	–	–	4690	–	Stability [7]: Stable; Stability [11]: Stable; Stability [16]: Stable
NCc1ccc2c(c1)C1(CCN(C(=O)c3cc(O)c(O)c(Cl)c3)CC1)CO2 [listing 2 of 2 here]	238	–	–	11700	–	Tmax [26]: 15 min; Time [27]: 24 h; half-life [24]: > 360 min; Time [28]: 8 h; solubility [29]: Soluble
CONC(=O)c1cc(C(=O)N2CCC(c3cccc(CN)c3)CC2)ccc1O	3310	81	84	455	68	–
NCc1ccc2c(c1)C1(CCN(C(=O)c3ccc(O)c(O)c3)CC1)CO2	635	94	–	2540	87	Stability [11]: Stable
CONC(=O)c1ccc(C(=O)N2CCC3(CC2)COc2ccc(CN)cc23)cc1O	43.4	–	–	–	–	Stability [7]: Stable; Stability [11]: Stable; Stability [16]: Stable
CONC(=O)c1cc(C(=O)N2CCC3(CC2)COc2ccc(CN)cc23)ccc1O	570	–	87	2160	67	Stability [7]: Stable
COc1cc(C(=O)N2CCC(c3cccc(CN)c3)CC2)cc(O)c1O	925	–	–	7430	–	–
NCc1ccc2c(c1)C1(CCN(C(=O)c3cccc(-c4cccc(B(O)O)c4)c3)CC1)CO2 [listing 1 of 2 here]	–	–	–	–	–	inhibition (Homo sapiens): inactive; inhibition (HMC1 [2]): Active; inhibition (Mus musculus): Active; inhibition (HMC1 [3]): inactive
COc1cc(C(=O)N2CCC3(CC2)COc2ccc(CN)cc23)cc(O)c1O	953	–	74	11800	72	Stability [7]: Stable
NCc1ccc2c(c1)C1(CCN(C(=O)c3cccc(-c4cccc5c4COB5O)c3)CC1)CO2	1500	–	82	2890	82	logD [30]: 1.69; inhibition (Mus musculus): inactive
NCc1ccc2c(c1)C1(CCN(C(=O)c3cccc(-c4cccc(B(O)O)c4)c3)CC1)CO2 [listing 2 of 2 here]	1220	85	96	1140	94	Tmax [26]: 30 min; Time [27]: 8 h; half-life [24]: > 360 min; Time [28]: 24 h; logD [30]: 1.22; solubility [29]: Soluble

From ChEMBL document CHEMBL4342466, “Novel, Self-Assembling Dimeric Inhibitors of Human β Tryptase” (J Med Chem, 2020)
